Several values for one entry are separate records, joined by “and”; a condition that tells them apart may be missing. Identical values can stand only once. Square brackets hold non-standard residues; d marks the D form. Peptide text beside a SMILES is read from it.
Legend:
[1] = target: T1, hcGAS-FL and Cy3-ISD (Homo sapiens, UniProt Q8N884); test: In vitro phase separation assay (cGAS-DNA condensates); format: biochemical; details: for Droplets (%), Fig. S6b: hcGAS-FL 100nM, Cy3-ISD 100nM; for Droplets (%), Fig. 4e: hcGAS-FL 500 nM, Cy3-ISD 500 nM; for Droplets (%), Fig. S6d: hcGAS-FL 1 μM, Cy3-ISD 1 μM
T1 construct: The gene encoding full-length human cGAS (hcGAS-FL); 6xHis-SUMO (N, cleaved yes); made in house; host or cells: Escherichia coli BL21 (DE3)
Protocol: Purified hcGAS-FL and Cy3-labeled DNA (Cy3-ISD) with the indicated concentrations were mixed with DMSO (0.1%) or indicated doses of XQ2 in 96-well plates (JingAn Biological) pre-coated with 20 mg/ml BSA (Sigma). Mixtures were incubated in buffer (20 mM Tris-HCl, pH 7.5, 150 mM NaCl and 1 mg/ml BSA) with standing at 37 °C in a total reaction volume of 50 μL. Phase-separated droplets were imaged at the indicated time by using Nikon A1R+ confocal microscope with a 60× oil objective, Nikon A1 camera, and X-Cite 120LED laser. Images were analyzed using FIJI software. The number of droplets was measured as the percentage of the imaging area occupied by Cy3-labeled components, and was plotted using GraphPad Prism 8.

[2] = test system: cGAS-knockout Hela cells reconstituted with EGFP-hcGAS-FL; test: Live-cell imaging of cGAS-DNA puncta; format: cell-based, human; details: 10 μM, 4 h
Protocol: cGAS-knockout Hela cells reconstituted with EGFP-tagged full-length human cGAS (EGFP-hcGAS-FL) were obtained by transfecting pEGFP-C2-hcGAS-FL recombinant plasmid, and were seeded into 20-mm glass-bottom cell culture dish (NEST). Cell culture media was replaced with fresh medium for 1 h, then cells were stimulated by transfection of ISD by lipofectamine 2000 (Invitrogen) after DMSO or XQ2 (10 μM) treatment for the indicated time. The cells were rinsed three times with PBS, and live-cell imaging was performed by using Nikon A1R+ confocal microscope with a 40× oil objective, Nikon A1 camera, and X-Cite 120LED laser. Images were analyzed by FIJI software.

[3] = test system: HSV-1-infected THP1 cells; test: HSV-1 cytopathogenic effect, CCK-8 viability; format: cell-based, human; details: for cell viability, CCK-8, Fig. 5e: XQ2 10 μM
Protocol: Cell viability was measured by cell counting kit-8 (TargetMol) according to the manufacturer’s instructions.

[4] = test system: THP1 cells stimulated with SATE-cddA, 2’3’-cGAMP or ADU-S100 (STING agonists); test: qPCR of IFNB1 mRNA in THP1 cells stimulated by STING agonists; format: cell-based, human; parameters: key to IFNB1 mRNA level (Fig. S7c): relative mRNA level, target CT normalized to GAPDH CT
Protocol: (§1) The indicated cells were stimulated with either ISD (Sangon Biotech), HSV-1 (Provided by Dr. Zhengfan Jiang), HSV60mer (Sangon Biotech), SATE-cddA[70], 2’3’-cGAMP (Invivogen, Cat# tlrl-nacga23-1), ADU-S100 (MedChemExpress, Cat# HY-12885A) or Poly(I:C) (Invivogen, Cat# tlrl-pic) after XQ2 or XQ2B treatment. Total RNA was isolated from indicated cells that incubated with the drugs for indicated time or mice tissues by using NucleoZOL reagent (MACHEREY-NAGEL) according to the manufacturer’s instructions. The quantifications of mRNA levels were carried out by real-time PCR using a PerfectStart® Uni RT&qPCR Kit (TransGen Biotech) on the QuantStudio 5 qPCR machine (Applied Biosystems). Samples were carried out in triplicate and the target CT values were normalized to GAPDH CT values. Primers of qPCR used in this study can be found in Supplementary Table S2.
IFNB1 mRNA relative level […]
Supplementary Fig. 7. XQ2B inhibits the activity of cGAS in vitro. […]
(e) THP1 cells were pretreated
Data are representative of
(§2) Source data are provided as a Source Data file.

[5] = test system: Jurkat cells; test: Flow cytometry of apoptosis, Annexin V and PI staining; format: cell-based, human; details: XQ2B +
Protocol: Cell death was measured by Annexin V-FITC/PI Apoptosis Kit (Elabscience) according to the manufacturer’s instructions. Data were acquired on an Attune NxT (ThermoFisher) flow cytometer and analyzed in FlowJo.
Supplementary Fig. 8. XQ2B inhibits cGAS induced autophagy and cell death. (a) L929 cells were pretreated […]
measured by CCK8 assay. p = 0.0022. (c, d) Jurkat cells were treated with DMSO or XQ2B (5 μM), followed by stimulation with ISD (2ug/ml) for 4 h. Flow cytometric analysis of apoptosis assessed by Annexin V and PI staining.
Analysis strategy shown was used to determine the Annexin V+ or PI+ population (c). Numbers in quadrants present […]
percentages (d). p = 0.0006. […]
by HSV-1 infection for indicated titer and periods. Induction of HSV-1(UL5) mRNA was measured by qPCR. p = 0.0018 (1×10^4 pfu); p < 0.0001 (2×10^4 pfu). Data are representative of three independent experiments with similar results in (a), or three independent experiments in (b, d, e). (Data are presented as mean ± SD, n = 3 independent […]
are provided as a Source Data file.

[6] = test system: TREX1 knockdown THP1 cells; test: qPCR of IFNB1 and CXCL10 mRNA after TREX1 siRNA; format: cell-based, human
Protocol: as §1
siRNA of TREX1 (siTREX1) was transfected into the indicated cells by Lipofectamine RNAiMAX (Invitrogen) according to the manufacturer’s instructions. Human siTREX1, mouse siTrex1 and negative control siRNAs were purchased from Sangon Biotech. The sequences of siRNAs oligonucleotides can be found in Supplementary Table S2.
Supplementary Fig. 9. XQ2B reduces interferon expression induced by Trex1 deficiency. […]
TREX1 knockdown THP1 cells were treated with DMSO or XQ2B (10 μM) for 24 h, and the mRNA levels of TREX1
(e), IFNB1 and CXCL10 (f) were measured by qPCR. (e) p < 0.0001, (f) p = 0.0001 (Ifnb1); p = 0.0157 (Cxcl10). Data
as §2

T1 sequence (Q8N884 whole entry): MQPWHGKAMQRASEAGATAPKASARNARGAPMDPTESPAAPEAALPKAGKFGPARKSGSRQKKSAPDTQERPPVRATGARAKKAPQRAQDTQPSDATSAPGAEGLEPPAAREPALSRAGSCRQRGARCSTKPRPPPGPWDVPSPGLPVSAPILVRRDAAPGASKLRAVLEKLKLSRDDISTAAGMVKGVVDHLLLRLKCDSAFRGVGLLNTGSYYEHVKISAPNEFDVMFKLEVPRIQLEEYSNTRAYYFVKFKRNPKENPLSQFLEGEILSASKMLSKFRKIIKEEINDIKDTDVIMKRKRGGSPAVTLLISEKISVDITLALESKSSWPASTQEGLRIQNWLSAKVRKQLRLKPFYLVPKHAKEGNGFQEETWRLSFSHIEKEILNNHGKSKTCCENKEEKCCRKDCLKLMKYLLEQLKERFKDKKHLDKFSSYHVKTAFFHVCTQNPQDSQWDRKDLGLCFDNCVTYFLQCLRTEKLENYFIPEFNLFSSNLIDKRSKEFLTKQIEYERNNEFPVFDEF

CC(C)C[C@@H]1NC(=O)[C@H](CCCNC(=N)N)NC(=O)[C@H](C(C)C)NC(=O)[C@@H]2CCCN2C(=O)[C@@H](Cc2ccccc2)NC(=O)[C@H](CC(C)C)NC(=O)[C@H](CCCNC(=N)N)NC(=O)[C@H](C(C)C)NC(=O)[C@H](C)NC(=O)[C@@H](Cc2ccccc2)NC1=O [XQ2, Cyclo (LfAVRLfPVR)] (cyclo(L[dF]AVRL[dF]PVR)) was tested, and the “DNA-induced liquid phase condensation of cGAS” value [1] was “efficiently suppressed DNA-induced liquid phase condensation of cGAS in a dose-dependent manner”, the “Droplets (%), Fig. S6b” value ([1]; XQ2 10 μM) was 33.0922% and 37.8074% and 43.9421% and the “Droplets (%), Fig. S6b” value ([1]; XQ2 20 μM) was 10.262% and 16.2032% and 13.5624%. The “Droplets (%), Fig. S6b” value ([1]; XQ2 40 μM) was 8.642% and 8.102% and 4.321%, the “Droplets (%), Fig. 4e” value ([1]; 30 min 37 °C, XQ2 10 μM) was 73.0692% and 66.6865% and 62.8824% and the “Droplets (%), Fig. 4e” value ([1]; XQ2 20 μM) was 40.7983% and 55.7848% and 51.751%. For the same molecule, the “Droplets (%), Fig. 4e” value ([1]; XQ2 40 μM) was 25.4542% and 20.5523% and 21.4459%, the “Droplets (%), Fig. S6d” value ([1]; XQ2 10 μM) was 79.2214% and 80.5313% and 77.1189% and the “Droplets (%), Fig. S6d” value ([1]; XQ2 20 μM) was 68.3204% and 65.6495% and 68.2188%. The “Droplets (%), Fig. S6d” value ([1]; XQ2 40 μM) was 48.2853% and 49.5952% and 47.6049%, the “puncta formation of EGFP-cGAS with ISD” value [2] was “markedly inhibited the puncta formation of EGFP-cGAS with ISD” and the “HSV-1 cytopathogenic effect in THP1 cells” value ([3]; 10 μM) was “HSV-1 produced marked cytopathogenic effect (CPE) in THP1 cells in the presence of XQ2”. The “cell viability, CCK-8, Fig. 5e” value ([3]; Ctl) was 102.857 and 110.714 and 112.321, the “cell viability, CCK-8, Fig. 5e” value ([3]; HSV-1 1×10^4 pfu) was 101.071 and 114.286 and 103.571 and the “cell viability, CCK-8, Fig. 5e” value ([3]; HSV-1 1×10^5 pfu) was 37.5 and 43.3929 and 38.0357. The “cell viability, CCK-8, Fig. 5e” value ([3]; HSV-1 2×10^4 pfu) was 57.3214 and 52.5 and 50.7143 and the “cell viability, CCK-8, Fig. 5e” value ([3]; HSV-1 5×10^4 pfu) was 52.8571 and 47.6786 and 46.7857.

For CC(C)C[C@@H]1NC(=O)[C@H](CCCNC(=N)N)NC(=O)[C@H](C(C)C)NC(=O)[C@@H]2CCCN2C(=O)[C@@H](Cc2ccccc2)NC(=O)[C@H](CC(C)C)NC(=O)[C@H](CCCNC(=N)N)NC(=O)[C@H]([C@@H](C)O)NC(=O)[C@H](C)NC(=O)[C@@H](Cc2ccccc2)NC1=O [XQ2B] (cyclo([dF]ATRL[dF]PVRL)), the “IFNB1 mRNA level (Fig. S7c)” value ([4]; 2'3'-cGAMP, XQ2B) was 4003.21 and 3809.06 and 3708.08, the “IFNB1 mRNA level (Fig. S7c)” value ([4]; SATE-cddA, XQ2B) was 747.639 and 650.174 and 712.905 and the “signaling induced by STING agonists” value ([4]; THP1, 10 μM) was “no significant effect on signaling induced by STING agonists”. The “IFNB1 mRNA level (Fig. S7c)” value ([4]; c-di-AM(PS)2, XQ2B) was 9.033 and 9.206 and 10.1658, the “Induced cell death(%) (Fig. S8d)” value ([5]; ISD +) was 18.8% and 19.1% and 18.5% and the “Induced cell death(%) (Fig. S8d)” value ([5]; ISD -) was 3.9% and 3.8%. For the same molecule, the “Relative mRNA level Cxcl10” value ([6]; Fig. S9f, TREX1 knockdown (siTREX1 +) THP1 cells, XQ2B +, individual replicates, siTREX1 alone 2.64-3.32) was 2.255 and 1.956 and 2.174, the “Relative mRNA level Ifnb1” value ([6]; Fig. S9f, TREX1 knockdown (siTREX1 +) THP1 cells, XQ2B +, individual replicates, siTREX1 alone 15.6-16.4) was 8.9487 and 8.582 and 9.951 and the “expression of Ifnb1, Cxcl10 with Trex1-siRNA” value ([6]; THP1, 10 μM, 24 h) was “markedly inhibited the expression of these genes in mouse L929 and human THP1 cells with Trex1-siRNA”.

Source: paper PMC10545747, “Development of cyclopeptide inhibitors of cGAS targeting protein-DNA interaction and phase separation” (Nature Communications, 2023)
